# Test results as given in patent US20060241174A1, “Vitamin E tocotrienols inhibition of intracellularly obligate pathogen Chlamydia and methods of use” (priority 2005, published 2006).
# Experiments:
# Chlamydia [1] = assay: Detection of Chlamydia-infected white blood cells in hyperlipidemic patients with delta-tocotrienol supplementation; assay type: in vivo, human
# Description: FIG. 6 illustrates detection and quantification of Chlamydia-infected white blood cells in hyperlipidemic patients with delta-tocotrienol supplementation. Buffy coats of hyperlipidemic patients were immunostained, and for each sample, aliquots of 10,000 cells were assessed. A dotplot of a hyperlipidemic patient prior to supplementation with delta-tocotrienol is shown in the left panel, and a dotplot of a hyperlipidemic patient after 2 months of delta-tocotrienol supplementation (100 mg/day) is shown in the right panel.
# Flow Cytometry Assessment of WBC: Flow cytometry (FC) quantification of Chlamydia-infected peripheral WBC used PBS rinsed buffy coat (BC) from HP samples. The BC cells were fixed and permeabilized (1% paraformaldehyde and 1% Triton X-100, 10 min. at RT; Aldrich Chemical Company, Inc., Milwaukee, Wis.). BCs were separately incubated for 1 hour with a 1:200 dilution of rabbit anti-Chlamydia primary antibody (Biodesign International, Saco, Me.) followed by a 1 hour incubation with a 1:150 dilution of FITC-conjugated goat anti-rabbit IgG (H+L) (Jackson ImmunoResearch, West Grove, Pa.), PBS rinsed X3, and mono-dispersed by passage through a nylon mesh filter (Lab-Line Instruments Inc, Melrose Park, Ill.). Sufficient WBCs were added to obtain 10,000 cells/tube and samples were analyzed for carriage of Chlamydia-infected cells by FACScan (Becton, Dickinson and Company, Franklin Lakes, N.J.).
# Detection of Chlamydia-Infected White Blood Cells (WBC): Smears of whole blood from each 10 ml hyperlipidemic HP blood sample, average donor age 54 years, were fixed with 70% MEOH for subsequent staining. Immunostaining used a 1:125 dilution of rabbit polyclonal anti-Chlamydia EB antibody followed by a 1:125 dilution of TRITC-conjugated goat anti-rabbit antibody (H+L) (Jackson ImmunoResearch, West Grove, Pa.). Slides were incubated at room temperature for 1 hour with each diluted antibody, rinsed, mounted and sealed as described above. Digital images of optical sections through these samples were acquired with a Zeiss LSM 510 Meta Confocal System.
# In a clinical study, buffy coats from blood samples drawn both before and after delta-tocotrienol supplementation were immunostained for detection of Chlamydia-infected cells. The samples were tested for LDL levels both before and after delta-tocotrienol supplementation.
# Chlamydia [2] = assay: Chlamydia-infected human mammary tumor cells (TMX2-28) treated with delta tocotrienol; assay type: cell-based
# Description: FIG. 7 illustrates Chlamydia-infected human mammary tumor cells treated with delta tocotrienol (630× magnification). Human mammary tumor cells (TMX2-28) were infected with Chlamydia for 72 hours and treated with a 15 μmol/L concentration of delta tocotrienol (FIG. 7A). Controls were left untreated (FIG. 7B).
# C. trachomatis serovar K = assay: Infection of delta tocotrienol-pretreated cell lines (J774A.1, MCF-7, TMX2-28, Hep-2, JY), immunofluorescence with microscopy or flow cytometry; assay type: cell-based, Chlamydia trachomatis; conditions: 10-30 μmol/L for 6 hours prior to infection
# Description: Delta tocotrienol is a vitamin E compound also available as dietary supplement. […] Since Chlamydia species enter cells via cholesterol-rich lipid raft domains involved in cholesterol trafficking, tocotrienols in general and hypocholesterolemic delta tocotrienol in particular will reduce infection by Chlamydia. Mouse macrophages (J774A.1), human mammary tumor cells (MCF-7, TMX2-28), human epithelial cells (Hep-2), and human B-lymphocytes (JY) were incubated with delta tocotrienol at concentrations of 10-30 μmol/L for 6 hours prior to infection by C. trachomatis serovar K, a subspecies of Chlamydia that is the primary cause of bacteria-initiated STD. Infections were detected by immunofluorescence staining followed by either microscopy or quantitative flow cytometric analysis. Infection levels in cells pretreated with delta-tocotrienol were decreased by >50%, with concomitant aberrant pathogen development observed with confocal microscopy. The number of large and small inclusions in the delta tocotrienol-versus-control cells was decreased by 3- and 2-fold, respectively. […] The impact of dietary delta tocotrienol on Chlamydia infection in hyperlipidemic patients is being examined in a clinical study. Cholesterol-suppressive delta tocotrienol may have the potential to reduce Chlamydia infection in humans.
substance,measurement,setting,value
delta tocotrienol,cell number compared to cells grown in culture medium,Cells in culture,no difference in cell number
same,Chlamydial Infection Status after Delta-Tocotrienol Supplementation,"Chlamydia [1]; Patient 1, status before: negative",negative
same,Chlamydial Infection Status after Delta-Tocotrienol Supplementation,"Chlamydia [1]; Patient 2, status before: positive",negative
same,Chlamydial Infection Status after Delta-Tocotrienol Supplementation,"Chlamydia [1]; Patient 3, status before: strong positive",negative
same,Chlamydia-infected white blood cells by flow cytometry (FIG. 6),"Chlamydia [1]; hyperlipidemic patient, 2 months supplementation, 100 mg/day, buffy coat, 10,000 cells",reduced the granularity and amount of Chlamydia-infected cells
same,"apoptosis of Chlamydia-infected, tocotrienol-treated cancer cells",Chlamydia [2],did not appear to become apoptotic
same,inclusion size in tocotrienol treated mammary tumor cells,"Chlamydia [2]; 15 μmol/L, infected 72 hours, untreated >20 μm",10-15 μm
same,decrease in number of large inclusions versus control cells,C. trachomatis serovar K,3 fold
same,decrease in number of small inclusions versus control cells,C. trachomatis serovar K,2 fold
same,decrease of infection levels in pretreated cells,C. trachomatis serovar K,> 50%
